According to PubChem BioAssay AID1850 (Southern Research Specialized Biocontainment Screening …, 2009):

Test system: Salmonella Typhi PhoP-promoter GFP reporter, fluorescence, 4 h
Test: PhoP regulon inhibitors, Salmonella typhi PhoP promoter GFP reporter, confirmatory (AID 1850)

How did the IC50 turn out when `CC(=O)OC1=C(O)C(=O)c2ccccc2C1=O` was run?
Its IC50 is 142 µM.
